# Experimental data as given in patent publication US9650382B2, “Heteroarylamide derivatives having antiandrogenic properties” (MEDEIA THERAPEUTICS LTD, priority 2012, dated 2017).
# Residue numbers refer to the chain shown, from its start.
# What was measured:
# Assay type in all cases: cell-based
# [1] = biological target: T1, W741L AR (Homo sapiens, UniProt P10275, W742L); experiment: Agonism in W741L mutant AR, AR transactivation assay in COS-1 cells, test compounds alone; conditions: 10 microM; compound alone
# T1 construct: expressed in transfected cells; host or cells: COS-1 cells
# T1 sequence (P10275 1-920 W742L): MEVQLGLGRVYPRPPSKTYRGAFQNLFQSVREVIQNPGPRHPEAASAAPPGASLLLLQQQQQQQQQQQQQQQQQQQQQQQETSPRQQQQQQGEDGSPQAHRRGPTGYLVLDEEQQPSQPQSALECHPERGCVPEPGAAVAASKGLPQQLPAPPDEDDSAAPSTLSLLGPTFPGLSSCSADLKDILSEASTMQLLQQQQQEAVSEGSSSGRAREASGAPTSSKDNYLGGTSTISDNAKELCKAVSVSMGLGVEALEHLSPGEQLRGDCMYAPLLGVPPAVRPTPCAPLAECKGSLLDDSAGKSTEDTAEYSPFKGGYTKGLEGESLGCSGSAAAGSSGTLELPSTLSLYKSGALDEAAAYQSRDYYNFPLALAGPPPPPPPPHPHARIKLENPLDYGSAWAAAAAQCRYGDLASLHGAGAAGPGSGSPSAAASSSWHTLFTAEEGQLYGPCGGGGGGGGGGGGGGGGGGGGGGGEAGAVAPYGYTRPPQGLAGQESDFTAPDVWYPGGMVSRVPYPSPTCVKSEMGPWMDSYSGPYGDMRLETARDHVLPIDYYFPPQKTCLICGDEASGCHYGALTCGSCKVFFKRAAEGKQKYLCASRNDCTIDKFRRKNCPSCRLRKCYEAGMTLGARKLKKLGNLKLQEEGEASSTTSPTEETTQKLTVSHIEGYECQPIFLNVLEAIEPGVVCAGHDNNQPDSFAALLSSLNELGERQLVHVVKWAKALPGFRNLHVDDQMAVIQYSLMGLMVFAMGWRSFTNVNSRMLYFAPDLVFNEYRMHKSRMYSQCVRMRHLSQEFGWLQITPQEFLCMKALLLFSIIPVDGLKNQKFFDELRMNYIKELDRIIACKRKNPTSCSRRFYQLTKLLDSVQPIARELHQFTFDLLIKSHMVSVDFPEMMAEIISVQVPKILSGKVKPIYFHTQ
# Description: (§1) COS-1 cells (American Type Culture Collection, ATCC) were cultured in Dulbecco's Modified Eagle Medium (DMEM) supplemented with 10% fetal bovine serum (FBS), penicillin (6.25 U/ml) and streptomycin (6.25 μg/ml) and seeded onto 48-well plates (50 000 cells/well) one day before transfection. Transfection media containing 2.5% charcoal-stripped FBS in DMEM was changed on cells 4 h prior to transfection. Cells were transfected with 50 ng of luciferase (LUC) reporter gene plasmid (pPB-286/+32-LUC; PB, probasin promoter), 5 ng of AR expression plasmid (pSG5-hAR), and 5 ng of pCMVβ (an internal, beta-galactosidase control for transfection efficiency and cell growth) using TransIT-LT1 reagent (Mirus Bio Corporation) according to the manufacturer's instructions. […] After 18 h, reporter gene activities (LUC and beta-galactosidase) were determined according to standard methods. The data are expressed as relative LUC activity (luciferase light units divided by beta-galactosidase A420nm to control for transfection efficiency) of a given compound in relation to the activity of a reference test item (=100%).
# (§2) Agonism in W741L AR of compounds of the present invention was measured in AR transactivation assay in COS-1 cells as described above except that AR expression vector harboring the W741L mutation was used instead of the WT AR. The transfected cells were exposed to test compounds alone.
# [2] = biological target: T2, WT AR (Homo sapiens, UniProt P10275); experiment: Antagonism in WT AR, AR transactivation reporter gene assay (COS-1 cells, or INDIGO Human AR Reporter Assay System), competitive setting with reference agonist; conditions: for activity at 1 µM / activity at 10 µM: COS-1, read-out: Relative LUC activity (%) indicating residual androgen activity in relation to reference agonist (100%); for Relative LUC activity (%) indicating residual androgen activity in relation to reference agonist (100%): competitive setting with reference agonist (50 nM testosterone or 400 pM FIT)
# T2 construct: expressed in transfected cells; host or cells: COS-1 cells (transient transfection); alternatively non-human mammalian cells of the INDIGO Biosciences Human AR Reporter Assay System
# T2 sequence (P10275 1-920): T1 sequence (P10275 1-920 W742L) with L742W
# Description: After 18 h, reporter gene activities (LUC and beta-galactosidase) were determined according to standard methods. The data are expressed as relative LUC activity (luciferase light units divided by beta-galactosidase A420nm to control for transfection efficiency) of a given compound in relation to the activity of a reference test item (=100%).
# Alternatively, commercial Human AR Reporter Assay System (INDIGO Biosciences) was used. In this assay, non-human mammalian cells are engineered to express human WT AR together with LUC reporter gene linked to AR-responsive promoter. 400 pM 6-alpha-FI testosterone, FIT, was used as a reference agonist in a competitive setting.
# Antagonism in WT AR of compounds of the present invention was measured in AR transactivation assay in COS-1 cells in competitive setting using testosterone as a reference agonist as described above. Alternatively INDIGO Bioscience's Human AR Reporter Assay System was utilized. […] Relative LUC activity representing AR-dependent transcription obtained by exposure to reference agonist alone was set to 100%.
# [3] = biological target: T3, T877A AR (Homo sapiens, UniProt P10275, T878A); experiment: Agonism in T877A mutant AR, AR transactivation assay in COS-1 cells, test compounds alone; conditions: 10 microM; compound alone
# T3 construct: expressed in transfected cells; host or cells: COS-1 cells
# T3 sequence (P10275 1-920 T878A): T1 sequence (P10275 1-920 W742L) with L742W, T878A
# Description: as §1
# as §2, with “T877A” for “W741L”, “used.” for “used instead of the WT AR.”, “alone. Testosterone was used as reference agonist, and its' relative LUC activity representing AR-dependent transcription was set to 100%.” for “alone.”
SMILES,Relative LUC activity (%) in W741L AR in relation to BIC (100%) [1] [%],activity at 1 µM [2] [%],activity at 10 µM [2] [%],Relative LUC activity (%) in T877A AR in relation to testosterone (100%) [3] [%],Relative LUC activity (%) indicating residual androgen activity in relation to reference agonist (100%) ([2]; 1 microM compound) [%],Relative LUC activity (%) indicating residual androgen activity in relation to reference agonist (100%) ([2]; 10 microM compound) [%]
"CCS(=O)(=O)CC(O)(C(=O)Nc1ccc(C#N)c(C(F)(F)F)c1)c1ccc(Cl)nc1 (stereo not shown) [Example 1, 2-(6-chloropyridin-3-yl)-N-[4-cyano-3-(trifluoromethyl)phenyl]-3-(ethanesulfonyl)-2-hydroxypropanamide]",6,37,8,13,,
"CC(C)CCS(=O)(=O)CC(O)(C(=O)Nc1ccc(C#N)c(C(F)(F)F)c1)c1ccc(Cl)nc1 (stereo not shown) [Example 6, 2-(6-chloropyridin-3-yl)-N-[4-cyano-3-(trifluoromethyl)phenyl]-2-hydroxy-3-[(3-methylbutane)sulfonyl]propanamide]",31,,,4,28,7
"N#Cc1ccc(NC(=O)C(O)(CS(=O)(=O)Cc2ccc(Cl)cc2)c2ccc(Cl)nc2)cc1Cl (stereo not shown) [Example 8, N-(3-chloro-4-cyanophenyl)-3-{[(4-chlorophenyl)methane]sulfonyl}-2-(6-chloropyridin-3-yl)-2-hydroxypropanamide]",4,,,2,32,4
"N#Cc1ccc(NC(=O)C(O)(CS(=O)(=O)c2ccc(Cl)cc2)c2ccc(Cl)nc2)cc1Cl (stereo not shown) [Example 9, N-(3-chloro-4-cyanophenyl)-3-[(4-chlorobenzene)sulfonyl]-2-(6-chloropyridin-3-yl)-2-hydroxypropanamide]",23,,,3,25,13
"CC(C)S(=O)(=O)CC(O)(C(=O)Nc1ccc(C#N)c(C(F)(F)F)c1)c1ccc(Cl)nc1 (stereo not shown) [Example 12, 2-(6-chloropyridin-3-yl)-N-[4-cyano-3-(trifluoromethyl)phenyl]-2-hydroxy-3-(propane-2-sulfonyl)propanamide]",3,30,5,4,,
"N#Cc1ccc(NC(=O)C(O)(CS(=O)(=O)c2ccc(F)cc2)c2ccc(C(F)(F)F)nc2)cc1Cl (stereo not shown) [Example 15, N-(3-chloro-4-cyanophenyl)-3-(4-fluorobenzenesulfonyl)-2-hydroxy-2-[6-(trifluoromethyl)pyridin-3-yl]propanamide]",,25,3,,,
